Results published in paper PMC5382548 (Scientific Reports, 2015).

Test system: SW620 metastatic colon cancer cells
Test: Guava ViaCount assay, SW620
Format: cell-based, human
Conditions: IC65 concentration, 72 h
Text: The ability of IQcs to induce cell death in colon cancer cell lines with different genotypes (HCT116 and SW620) and in the non-malignant cell line HEK293T was studied by a Guava Via Count assay and compared with the behaviour of 5-FU and TMPyP4 at equitoxic concentrations (IC50 and IC65). Results in Figure 7 show dose-dependent induction of cell death, mainly by apoptosis, by all tested compounds in the HCT116 colon cancer cell line. […] In SW620 metastatic colon cancer cells, cell death induction was highly dependent on the number and position of side chains in IQc compounds. […]
Figure 7 Evaluation of the effect of IQc on cell viability using the ViaCount assay. […] Results are expressed as the mean percentage (%) of viable (white), mid-apoptotic (grey) and dead (black) cells ± SEM, of at least three different experiments, for (a) IC50, and for (b) IC65 compound concentrations. a, p < 0.05; b, p < 0.01 from DMSO (vehicle control); c, p < 0.05; and d, p < 0.01 from 5-FU. […]
Taqman Real-time PCR reactions were performed using 1.5 µg of total RNA, using High Capacity RNA to cDNA kit, according to the manufacturer`s instruction. […] The comparative threshold cycle method was used to calculate the amplification factor, where the threshold cycle (Ct) is defined as the cycle number at which the fluorescence passes the fixed threshold intensity level. […]

## C[n+]1ccc(-c2c3nc(c(-c4cc[n+](C)cc4)c4ccc([nH]4)c(-c4cc[n+](C)cc4)c4ccc([nH]4)c(-c4cc[n+](C)cc4)c4nc2C=C4)C=C3)cc1 [TMPyP4, reference compound]
  Cell death induced, SW620: > 20%
